Experimental data: patent US11603543B2, “Fusogenic lipid nanoparticles for target cell-specific production of a therapeutic protein” (Oisin Biotechnologies, Inc., priority 2018, dated 2023)

B1: p14: fusogenic p14 FAST fusion protein from reptilian reovirus, SEQ ID NO: 16 (protein, listed as Homo sapiens)
chain: MGSGPSNFVNHAPGEAIVTGLEKGADKVAGTISHTIWEVIAGLVALLTFLAFGFWLFKYLQKRRERRRQLTEFQKRYLRNSYRLSEIQRPISQHEYEDPYEPPSRRKPPPPPYSTYVNIDNVSAI

Key:
[1] = system: Human prostate cancer PC-3 cells; assay: Luminescence assay of iCasp9 expression in PC-3 cells; type: cell-based; conditions: PC-3 cells treated with Fusogenix lipid nanoparticles carrying pVax-p53-iCasp9-luc plasmid
Protocol: (§1) FIG. 42 is a bar graph of data from a luminescence assay of iCasp 9 and Casp 9 protein levels obtained with the p53-expressing cells presented in FIG. 36 (pVax-p53) and control cells (pcDNA3-GFP). Human prostate cancer PC-3 cells were treated with Fusogenix lipid nanoparticles carrying the pVax-p53-iCasp9-luc (luciferin) plasmid (in the presence and absence of the homodimerizer AP20187) and assessed for iCasp9 expression.
Human prostate cancer PC-3 cells were treated with Fusogenix lipid nanoparticles carrying the pVax-p53-iCasp9-luc (luciferin) plasmid (in the presence and absence of the homodimerizer AP20187) and assessed for iCasp9 expression.

[2] = system: Human prostate cancer PC-3 cells; assay: Western blot of iCasp9 and Casp9 protein levels in PC-3 cells; type: cell-based; conditions: PC-3 cells treated with Fusogenix lipid nanoparticles carrying pVax-p53-iCasp9-luc plasmid
Protocol: as §1, with “36” for “42”, “Western blot” for “bar graph of data from a luminescence assay”, “with” for “with the”, “cells” for “cells presented in FIG. 36”, “AP201870)” for “AP20187)”
Human prostate cancer PC-3 cells were treated with Fusogenix lipid nanoparticles carrying the pVax-p53-iCasp9-luc (luciferin) plasmid (in the presence and absence of the homodimerizer AP201870) and assessed for iCasp9 expression and subjected to Western blot analysis of iCasp 9 and Casp 9 protein levels obtained with p53-expressing cells (pVax-p53) and control cells (pcDNA3-GFP). FIG. 36.

[3] = humans; cited from earlier work
[4] = system: Human prostate cancer (LNCaP, DU145, PC-3) or normal epithelial (RWPE) cells; assay: Western blot and luminescence assays of iCasp9 expression in prostate cancer and normal epithelial cells; type: cell-based; conditions: DU145, PC-3, RWPE cells treated with Fusogenix lipid nanoparticles carrying pVax-p53-iCasp9-luc plasmid
[5] = Anti-p14 and anti-LNP antibody response in immune competent mice; type: in vivo; conditions: with adjuvant: 3 injections of 50 μg p14 with Freund's adjuvant at 10 day intervals; sera after 30 days
Protocol: Mice were injected three (3) times at 10 day intervals with purified p14 mixed with Freund's adjuvant. A first dose contained CFA (complete Freund's adjuvant) while second and third doses contained IFA (incomplete Freund's adjuvant). Each injection was with 50 μg of p14. Mice were sacrificed after 30 days and sera was analyzed for anti-p14 antibodies. p14 lipid nanoparticles were also tested in two (2) mice via intravenous injection of 400 μg of p53-iCasp9 Fusogenix lipid nanoparticles containing 240 μg of p14. Mice were sacrificed after 30 days of injection and serum was analyzed for anti-p14 antibodies. A positive control included purified antibodies spiked in serum at a high dose of 250 ng/ml and a low dose of 50 ng/ml.

| Molecule | expression of iCasp9 and luciferase after addition of CID [1] | expression of iCasp9 and luciferase after addition of CID [2] | intravenous safety [3] | expression of iCasp9 and luciferase after addition of CID [4] | anti-p14 antibody response [5] |
| --- | --- | --- | --- | --- | --- |
| CC[C@H](C(=O)N1CCCC[C@H]1C(=O)O[C@H](CCc1ccc(OC)c(OC)c1)c1cccc(OCC(=O)NCCNC(=O)COc2cccc([C@@H](CCc3ccc(OC)c(OC)c3)OC(=O)[C@@H]3CCCCN3C(=O)[C@@H](CC)c3cc(OC)c(OC)c(OC)c3)c2)c1)c1cc(OC)c(OC)c(OC)c1 [AP1903] | abolishes the expression of iCasp9 and luciferase | abolishes the expression of iCasp9 and luciferase | confirmed | abolishes the expression of iCasp9 and luciferase | – |
| CC[C@H](C(=O)N1CCCC[C@H]1C(=O)O[C@H](CCc1ccc(OC)c(OC)c1)c1cccc(OCC(=O)NCC(CNC(=O)COc2cccc([C@@H](CCc3ccc(OC)c(OC)c3)OC(=O)[C@@H]3CCCCN3C(=O)[C@@H](CC)c3cc(OC)c(OC)c(OC)c3)c2)CN(C)C)c1)c1cc(OC)c(OC)c(OC)c1 [AP20187] | abolishes the expression of iCasp9 and luciferase | abolishes the expression of iCasp9 and luciferase | – | abolishes the expression of iCasp9 and luciferase | – |
| B1 | – | – | – | – | virtually no antibody response |
